The subject of this test is MV-4-11 cells. The experiment in a line: Gene expression microarray analysis (Affymetrix PrimeView) and GSEA. In kind it is cell-based, human. The arrangement: RFU PODN (11730768_x_at) / Fold change /veh PODN (11730768_x_at) / RFU LINC00158 (11744669_a_at) / Fold change /veh LINC00158 (11744669_a_at) / RFU DUSP10 (11751237_a_at) / Fold change /veh DUSP10 (11751237_a_at) / RFU ID3 (11757404_x_at) / Fold change /veh ID3 (11757404_x_at) / RFU PLEKHG5 (11737974_s_at) / Fold change /veh PLEKHG5 (11737974_s_at) / RFU LRRC4B (11730491_at) / Fold change /veh LRRC4B (11730491_at) / RFU GIMAP4 (11747438_a_at) / Fold change /veh GIMAP4 (11747438_a_at) / RFU KRT8 (11758183_x_at) / Fold change /veh KRT8 (11758183_x_at) / RFU CNN1 (11734310_a_at) / Fold change /veh CNN1 (11734310_a_at) / RFU VPS37D (11726825_at) / Fold change /veh VPS37D (11726825_at) / RFU C10orf10 (11716522_x_at) / Fold change /veh C10orf10 (11716522_x_at) / RFU KIR2DL2 /// KIR2DL4 /// KIR2DL5A /// KIR2DL5B /// KIR2DS1 /// KIR2DS2 /// KIR2DS3 /// KIR2DS4 /// KIR3DL3 /// KIR3DL3 /// KIR3DS1 (11738374_at) / Fold change /veh KIR2DL2 /// KIR2DL4 /// KIR2DL5A /// KIR2DL5B /// KIR2DS1 /// KIR2DS2 /// KIR2DS3 /// KIR2DS4 /// KIR3DL3 /// KIR3DL3 /// KIR3DS1 (11738374_at) / RFU C1QL1 (11718748_at) / Fold change /veh C1QL1 (11718748_at) / RFU TMPRSS4 (11747572_a_at) / Fold change /veh TMPRSS4 (11747572_a_at) / RFU HAMP (11756126_x_at) / Fold change /veh HAMP (11756126_x_at) / RFU RNFT2 (11725882_a_at) / Fold change /veh RNFT2 (11725882_a_at) / RFU NR4A2 (11747474_a_at) / Fold change /veh NR4A2 (11747474_a_at) / RFU ABCC12 (11746883_a_at) / Fold change /veh ABCC12 (11746883_a_at) / RFU TMEM136 (11760407_x_at) / Fold change /veh TMEM136 (11760407_x_at) / RFU CLDN22 /// WWC2 (11732394_at) / Fold change /veh CLDN22 /// WWC2 (11732394_at) / RFU HLA-DPB1 (11760878_x_at) / Fold change /veh HLA-DPB1 (11760878_x_at) / RFU SPINT1 (11716480_a_at) / Fold change /veh SPINT1 (11716480_a_at) / RFU GAP43 (11754022_s_at) / Fold change /veh GAP43 (11754022_s_at) / RFU A4GNT (11735810_at) / Fold change /veh A4GNT (11735810_at) / RFU PRB3 (11715151_x_at) / Fold change /veh PRB3 (11715151_x_at) / RFU TUBB4B (11761932_at) / Fold change /veh TUBB4B (11761932_at) / RFU CAPN14 (11732068_a_at) / Fold change /veh CAPN14 (11732068_a_at) / RFU TMCC2 (11721928_a_at) / Fold change /veh TMCC2 (11721928_a_at) / RFU IRGQ (11745062_a_at) / Fold change /veh IRGQ (11745062_a_at) / RFU FAM174B (11720279_a_at) / Fold change /veh FAM174B (11720279_a_at) / RFU TMPRSS4 (11748680_a_at) / Fold change /veh TMPRSS4 (11748680_a_at) / RFU FAM212B (11763350_a_at) / Fold change /veh FAM212B (11763350_a_at) / RFU PLEKHG5 (11743358_a_at) / Fold change /veh PLEKHG5 (11743358_a_at) / RFU ZSCAN30 (11745921_a_at) / Fold change /veh ZSCAN30 (11745921_a_at) / RFU CMKLR1 (11741424_a_at) / Fold change /veh CMKLR1 (11741424_a_at) / RFU LOC101060620 /// MAPK8IP1 (11723275_at) / Fold change /veh LOC101060620 /// MAPK8IP1 (11723275_at) / RFU SPTSSB (11747773_x_at) / Fold change /veh SPTSSB (11747773_x_at) / RFU PRSS12 (11739890_at) / Fold change /veh PRSS12 (11739890_at) / RFU BIN1 (11741810_x_at) / Fold change /veh BIN1 (11741810_x_at) / RFU WNT11 (11732464_a_at) / Fold change /veh WNT11 (11732464_a_at) / RFU C10orf10 (11716521_a_at) / Fold change /veh C10orf10 (11716521_a_at) / RFU C5orf56 (11738089_at) / Fold change /veh C5orf56 (11738089_at) / RFU CYB561 (11721691_x_at) / Fold change /veh CYB561 (11721691_x_at) / RFU ANKRD19P (11752326_a_at) / Fold change /veh ANKRD19P (11752326_a_at) / RFU OR2T12 /// OR2T33 /// OR2T8 (11738714_s_at) / Fold change /veh OR2T12 /// OR2T33 /// OR2T8 (11738714_s_at) / RFU VCAN (11748164_a_at) / Fold change /veh VCAN (11748164_a_at) / RFU JSRP1 (11732532_at) / Fold change /veh JSRP1 (11732532_at) / RFU KRTAP10-11 (11738290_x_at) / Fold change /veh KRTAP10-11 (11738290_x_at) / RFU MYO3A (11730013_a_at) / Fold change /veh MYO3A (11730013_a_at) / RFU EBF3 (11725865_a_at) / Fold change /veh EBF3 (11725865_a_at) / RFU CAMK2N1 (11719241_x_at) / Fold change /veh CAMK2N1 (11719241_x_at) / RFU C5orf56 (11738088_a_at) / Fold change /veh C5orf56 (11738088_a_at) / RFU OLFML3 (11715873_a_at) / Fold change /veh OLFML3 (11715873_a_at) / RFU LOC100653217 /// NTM (11731650_a_at) / Fold change /veh LOC100653217 /// NTM (11731650_a_at) / RFU MAPK11 (11762145_a_at) / Fold change /veh MAPK11 (11762145_a_at) / RFU FIZ1 (11724087_x_at) / Fold change /veh FIZ1 (11724087_x_at) / RFU OASL (11726364_x_at) / Fold change /veh OASL (11726364_x_at) / RFU SOX15 (11748057_x_at) / Fold change /veh SOX15 (11748057_x_at) / RFU CD79A (11719716_a_at) / Fold change /veh CD79A (11719716_a_at) / RFU HIST1H1D (11736915_at) / Fold change /veh HIST1H1D (11736915_at) / RFU CASKIN2 (11723855_a_at) / Fold change /veh CASKIN2 (11723855_a_at) / RFU LOC730098 (11760151_x_at) / Fold change /veh LOC730098 (11760151_x_at) / RFU OR4N2 (11742367_at) / Fold change /veh OR4N2 (11742367_at) / RFU PRRT2 (11749266_a_at) / Fold change /veh PRRT2 (11749266_a_at) / RFU SNX32 (11753110_a_at) / Fold change /veh SNX32 (11753110_a_at) / RFU CDHR5 (11726645_a_at) / Fold change /veh CDHR5 (11726645_a_at) / RFU RCAN1 (11760418_a_at) / Fold change /veh RCAN1 (11760418_a_at) / RFU FAM167A (11723789_a_at) / Fold change /veh FAM167A (11723789_a_at) / RFU FAM26E (11764081_at) / Fold change /veh FAM26E (11764081_at) / RFU ISYNA1 (11749810_s_at) / Fold change /veh ISYNA1 (11749810_s_at) / RFU ACY1 (11761880_at) / Fold change /veh ACY1 (11761880_at) / RFU 11764098_at / Fold change /veh 11764098_at / RFU SAMD14 (11745864_x_at) / Fold change /veh SAMD14 (11745864_x_at) / RFU NPB (11741838_a_at) / Fold change /veh NPB (11741838_a_at) / RFU TMPRSS6 (11731388_a_at) / Fold change /veh TMPRSS6 (11731388_a_at) / RFU KRTAP10-2 (11738614_at) / Fold change /veh KRTAP10-2 (11738614_at) / RFU ARHGAP8 /// PRR5-ARHGAP8 (11727945_x_at) / Fold change /veh ARHGAP8 /// PRR5-ARHGAP8 (11727945_x_at) / RFU KRTAP5-7 /// NADSYN1 (11734609_at) / Fold change /veh KRTAP5-7 /// NADSYN1 (11734609_at) / RFU RASL12 (11751679_a_at) / Fold change /veh RASL12 (11751679_a_at) / RFU CDKN2B (11736163_a_at) / Fold change /veh CDKN2B (11736163_a_at) / RFU PRF1 (11729649_at) / Fold change /veh PRF1 (11729649_at) / RFU, ZNF638 /// ZNF638-IT1 / Fold change vs veh, ZNF638 /// ZNF638-IT1 / RFU, PANK3 / Fold change vs veh, PANK3 / RFU, SH3YL1 / Fold change vs veh, SH3YL1 / RFU, ZEB2 / Fold change vs veh, ZEB2 / RFU, NRIP1 / Fold change vs veh, NRIP1 / RFU, PTTG1IP / Fold change vs veh, PTTG1IP / RFU, CAPN2 / Fold change vs veh, CAPN2 / RFU, MED14 / Fold change vs veh, MED14 / RFU, SNORA58 / Fold change vs veh, SNORA58 / RFU, C1orf63 / Fold change vs veh, C1orf63 / RFU, LRRFIP1 / Fold change vs veh, LRRFIP1 / RFU, NDUFAF7 / Fold change vs veh, NDUFAF7 / RFU, SLC12A2 / Fold change vs veh, SLC12A2 / RFU, IBTK / Fold change vs veh, IBTK / RFU, ESF1 / Fold change vs veh, ESF1 / Fold change vs veh, TMEM50B / RFU, TAOK1 / Fold change vs veh, TAOK1 / RFU, ACBD3 / Fold change vs veh, ACBD3 / RFU, TMA16 / Fold change vs veh, TMA16 / RFU, RWDD3 / Fold change vs veh, RWDD3 / RFU, BCAT1 / Fold change vs veh, BCAT1 / RFU, EDEM3 / Fold change vs veh, EDEM3 / RFU, TMEM33 / Fold change vs veh, TMEM33 / RFU, WDR75 / Fold change vs veh, WDR75 / RFU, AHCTF1 / Fold change vs veh, AHCTF1 / RFU, TFRC / Fold change vs veh, TFRC / RFU, ZDHHC17 / Fold change vs veh, ZDHHC17 / RFU, NOM1 / Fold change vs veh, NOM1 / RFU, ARL8B / Fold change vs veh, ARL8B / RFU, ZBTB11 / Fold change vs veh, ZBTB11 / RFU, TAMM41 / Fold change vs veh, TAMM41 / RFU, KIAA1704 /// LOC100996395 / Fold change vs veh, KIAA1704 /// LOC100996395 / RFU, ING1 / Fold change vs veh, ING1 / RFU, TRMT61B / Fold change vs veh, TRMT61B / RFU, FUBP3 / Fold change vs veh, FUBP3 / RFU, TP53 / Fold change vs veh, TP53 / RFU, TNKS2 / Fold change vs veh, TNKS2 / RFU, ZFP14 / Fold change vs veh, ZFP14 / RFU, ACTR2 / Fold change vs veh, ACTR2 / RFU, PPP3R1 / Fold change vs veh, PPP3R1 / RFU, PIK3R1 / Fold change vs veh, PIK3R1 / RFU, HNRNPA1 / Fold change vs veh, HNRNPA1 / RFU, RNF170 / Fold change vs veh, RNF170 / RFU, ZNF28 / Fold change vs veh, ZNF28 / RFU, RNGTT / Fold change vs veh, RNGTT / RFU, OGT / Fold change vs veh, OGT / RFU, BRD1 / Fold change vs veh, BRD1 / RFU, MARS / Fold change vs veh, MARS / RFU, ZNF655 / Fold change vs veh, ZNF655 / RFU, FAHD1 / Fold change vs veh, FAHD1 / RFU, BDP1 / Fold change vs veh, BDP1 / RFU, LRRCC1 / Fold change vs veh, LRRCC1 / RFU, ARID1A / Fold change vs veh, ARID1A / RFU, ZNF146 / Fold change vs veh, ZNF146 / RFU, ZNF330 / Fold change vs veh, ZNF330 / RFU, GPN3 / Fold change vs veh, GPN3 / RFU, C9orf123 / Fold change vs veh, C9orf123 / RFU, N4BP2L2 / Fold change vs veh, N4BP2L2 / RFU, ARFIP1 / Fold change vs veh, ARFIP1 / RFU, FAM179B / Fold change vs veh, FAM179B / RFU, BCL10 / Fold change vs veh, BCL10 / RFU, UHRF1BP1L / Fold change vs veh, UHRF1BP1L / RFU, BET1 / Fold change vs veh, BET1 / RFU, CNOT2 / Fold change vs veh, CNOT2 / RFU, ZNF268 / Fold change vs veh, ZNF268 / Fold change vs veh, ZNF507 / RFU, DGCR2 / Fold change vs veh, DGCR2 / RFU, WDSUB1 / Fold change vs veh, WDSUB1 / Fold change vs veh, HSP90B1 /// MIR3652 / RFU, ADSS / Fold change vs veh, ADSS / RFU, GK / Fold change vs veh, GK / RFU, ZNF148 / Fold change vs veh, ZNF148 / RFU, TAF9 / Fold change vs veh, TAF9 / RFU, SLC1A5 / Fold change vs veh, SLC1A5 / RFU, SLMO2 / Fold change vs veh, SLMO2 / RFU, ABCC4 / Fold change vs veh, ABCC4 / RFU, LOC101060439 /// RAP1B / Fold change vs veh, LOC101060439 /// RAP1B / RFU, RFX7 / Fold change vs veh, RFX7 / RFU, GTPBP10 / Fold change vs veh, GTPBP10 / RFU, CNEP1R1 / Fold change vs veh, CNEP1R1 / RFU, BIVM-ERCC5 /// ERCC5 / Fold change vs veh, BIVM-ERCC5 /// ERCC5 / RFU, ILF3 / Fold change vs veh, ILF3 / RFU 11762660_at / Fold change /veh 11762660_at / RFU VCAN (11757783_s_at) / Fold change /veh VCAN (11757783_s_at) / RFU DDX43 (11728927_at) / Fold change /veh DDX43 (11728927_at) / RFU KRT8 (11758188_x_at) / Fold change /veh KRT8 (11758188_x_at) / RFU NKD1 (11759106_at) / Fold change /veh NKD1 (11759106_at) / RFU SRD5A1 (11742802_a_at) / Fold change /veh SRD5A1 (11742802_a_at) / RFU TPSAB1 /// TPSB2 (11721975_s_at) / Fold change /veh TPSAB1 /// TPSB2 (11721975_s_at) / RFU GSTM3 (11746129_a_at) / Fold change /veh GSTM3 (11746129_a_at) / RFU IL23R (11737362_x_at) / Fold change /veh IL23R (11737362_x_at) / RFU TMEM51 (11727254_a_at) / Fold change /veh TMEM51 (11727254_a_at) / RFU PIWIL2 (11732686_x_at) / Fold change /veh PIWIL2 (11732686_x_at) / RFU ORM1 (11744905_x_at) / Fold change /veh ORM1 (11744905_x_at) / RFU CCDC152 (11743942_at) / Fold change /veh CCDC152 (11743942_at) / RFU ECM1 (11717891_a_at) / Fold change /veh ECM1 (11717891_a_at) / RFU IL23R (11748794_a_at) / Fold change /veh IL23R (11748794_a_at) / RFU TNFAIP8L3 (11732012_x_at) / Fold change /veh TNFAIP8L3 (11732012_x_at) / RFU MBOAT4 (11741988_at) / Fold change /veh MBOAT4 (11741988_at) / RFU 11764193_at / Fold change /veh 11764193_at / RFU TMEM53 (11763286_at) / Fold change /veh TMEM53 (11763286_at) / RFU MAGEB2 (11727129_at) / Fold change /veh MAGEB2 (11727129_at) / RFU TMEM200A (11744735_a_at) / Fold change /veh TMEM200A (11744735_a_at) / RFU CCDC152 (11751479_a_at) / Fold change /veh CCDC152 (11751479_a_at) / RFU FAM211A (11726209_a_at) / Fold change /veh FAM211A (11726209_a_at) / RFU RGS16 (11746705_a_at) / Fold change /veh RGS16 (11746705_a_at) / RFU VCAN (11755009_s_at) / Fold change /veh VCAN (11755009_s_at) / RFU RHOB (11743442_s_at) / Fold change /veh RHOB (11743442_s_at) / RFU RGS16 (11720943_a_at) / Fold change /veh RGS16 (11720943_a_at) / RFU RGS16 (11720944_at) / Fold change /veh RGS16 (11720944_at) / RFU, VPS4B / Fold change vs veh, VPS4B / RFU, CREB1 / Fold change vs veh, CREB1 / RFU, DNAJC13 / Fold change vs veh, DNAJC13 / RFU, GNAQ / Fold change vs veh, GNAQ / RFU, CDK5R1 / Fold change vs veh, CDK5R1 / RFU, ZRANB3 / Fold change vs veh, ZRANB3 / RFU, CUL4A / Fold change vs veh, CUL4A / RFU, CCNY / Fold change vs veh, CCNY / RFU, UFL1 / Fold change vs veh, UFL1 / RFU, COG3 / Fold change vs veh, COG3 / RFU, DIAPH2 / Fold change vs veh, DIAPH2 / RFU, SKA2 / Fold change vs veh, SKA2 / RFU, AFF3 / Fold change vs veh, AFF3 / RFU, LMF1 / Fold change vs veh, LMF1 / RFU, IPO11 / Fold change vs veh, IPO11 / RFU, DFFB / Fold change vs veh, DFFB / RFU, FOXP1 / Fold change vs veh, FOXP1 / RFU, CARD8 / Fold change vs veh, CARD8 / RFU, STRN3 / Fold change vs veh, STRN3 / RFU, ADK / Fold change vs veh, ADK / RFU, RASSF2 / Fold change vs veh, RASSF2 / RFU, WIPF1 / Fold change vs veh, WIPF1 / RFU, LARP1B / Fold change vs veh, LARP1B / RFU, RASA1 / Fold change vs veh, RASA1 / RFU, RB1 / Fold change vs veh, RB1 / RFU, PPFIA1 / Fold change vs veh, PPFIA1 / RFU, MAT2A / Fold change vs veh, MAT2A / RFU, CCT5 / Fold change vs veh, CCT5 / RFU, WDR92 / Fold change vs veh, WDR92 / RFU, CUX1 / Fold change vs veh, CUX1 / RFU, TTC7A / Fold change vs veh, TTC7A / RFU, TMEM135 / Fold change vs veh, TMEM135 / RFU, DEPTOR / Fold change vs veh, DEPTOR / RFU, CPM / Fold change vs veh, CPM / RFU, DNAJB6 / Fold change vs veh, DNAJB6 / RFU, CACNA2D3 / Fold change vs veh, CACNA2D3 / RFU, DTX4 / Fold change vs veh, DTX4 / RFU, TFCP2 / Fold change vs veh, TFCP2 / RFU, GMCL1 /// GMCL1P1 / Fold change vs veh, GMCL1 /// GMCL1P1 / RFU, AEBP2 / Fold change vs veh, AEBP2 / RFU, SNHG1 /// SNORD22 /// SNORD25 /// SNORD26 /// SNORD27 /// SNORD28 /// SNORD29 /// SNORD31 / Fold change vs veh, SNHG1 /// SNORD22 /// SNORD25 /// SNORD26 /// SNORD27 /// SNORD28 /// SNORD29 /// SNORD31 / Fold change (Aza/veh), C12orf56 (ProbeSet 11735607_a_at) / Fold change (ACY-1035/veh), C12orf56 (ProbeSet 11735607_a_at) / Fold change (Aza/veh), FGFR1OP (ProbeSet 11751329_s_at) / Fold change (ACY-1035/veh), FGFR1OP (ProbeSet 11751329_s_at) / Fold change (Aza/veh), VPS36 (ProbeSet 11739960_a_at) / Fold change (ACY-1035/veh), VPS36 (ProbeSet 11739960_a_at) / RFU SYPL1 (11715823_x_at) / Fold change /veh SYPL1 (11715823_x_at) / RFU IGFBP7 (11715501_s_at) / Fold change /veh IGFBP7 (11715501_s_at) / RFU REEP3 (11722064_at) / Fold change /veh REEP3 (11722064_at) / RFU IGLL1 (11728026_x_at) / Fold change /veh IGLL1 (11728026_x_at): dose or concentration left out as unconfirmed. The settings on record: MV-4-11 cells, 48 hours.

Results on one compound are retold here after paper PMC5218480 (PLoS ONE, 2017).

Regarding `Nc1ccc(-c2cccs2)cc1NC(=O)c1ccc2c(c1)cc(C1CC1)n2CCN1CCOCC1` [ACY-1035], the “RFU CAMK2N1 (11719241_x_at)” value is reported as 51.25 RFU.
